Data published in article PMC8795197, “Safety and activity of WX-0593 (Iruplinalkib) in patients with ALK- or ROS1-rearranged advanced non-small cell lung cancer: a phase 1 dose-escalation and dose-expansion trial” (Signal Transduction and Targeted Therapy, 2022).
Where two headings read alike, the source gives them in different places.

Experiment: Phase 1 dose-escalation phase: plasma pharmacokinetics
Type: in vivo, human
Details: for Tmax / AUC(0-t) / AUC(0-inf) / Cmax / MRT inf / half-life: human, plasma, oral; for Tmax / AUC(0-t) / AUC(0-inf) / Cmax / MRT inf / half-life / Cssmax / Cssmin / Racc_AUC / Racc_Cmax: mean (SD); for MRT inf: read-out: MRT0-∞; for half-life: read-out: T1/2z (converted)
Description: Three patients were assigned to each dose level. In the dosing cohort of 30 mg, treatment included a single WX-0593 dose, followed by 7-day PK evaluation period, and subsequent daily oral dosing for continuous 21 days. In other dosing cohorts, WX-0593 was administered orally as a single dose in the 4-day PK run-in period, followed by dosing once per day in continuous 21-day cycles. The DLT observation period was the first cycle of WX-0593 treatment (the single-dose period and 21 days of multiple-dose period).
In the dose-escalation phase, blood samples were collected at protocol-specified time points after single and multiple dose administration of WX-0593 in all dosing cohorts for assessment of PK parameters.
Safety analysis was performed in the SS, which was comprised of all patients treated with one dose of WX-0593 and with safety data recorded. Efficacy analysis was performed in the FAS, which was defined as all patients treated with at least one dose of WX-0593. The PK analysis set included all patients treated with at least one dose of WX-0593 and with at least one evaluable PK sample.
Descriptive statistics were carried out to summarize patients’ baseline characteristics and safety. […] All time-to-event data (PFS, TTP, DOR, and OS) and their corresponding 95% CIs were estimated by Kaplan–Meier methods. PK parameter analyses were done with Phoenix WinNonlin version 8.0. All other statistical analyses were conducted using SAS version 9.4.
Blood sampling time points for single dose: Blood samples are collected before dosing and 0.5 h, 1 h, 2 h, 3 h, 4 h, 5 h, 6 h, 8 h, 12 h, 24 h, 32 h, 48 h, and 72 h after dosing (after adjustment according to the pharmacokinetic parameters of patients in the first dose arm).
Blood sampling time points for repeated dosing: Repeated dosing starts 4 days after single dose administration. Blood samples are collected before repeated dosing on Days 7, 14, and 21 before repeated dosing, and within 24h after dosing (0.5 h, 1 h, 2 h, 3 h, 4 h, 5 h, 6 h, 8 h, 12 h, 24 h) for measurement of blood pharmacokinetic parameters.
The plasma concentration of WX-0593 will be determined using LC-MS.

[1] = multiple dosing 120 mg (n = 11)
[2] = multiple dosing 180 mg (n = 13)
[3] = multiple dosing 240 mg (n = 12)

COc1cc(N2CCC3(CCN(C)CC3)CC2)ccc1Nc1ncc(Cl)c(Nc2ccccc2P(C)(C)=O)n1 [WX-0593]
free Cavg,ss (180 mg, once daily): 127 nM | Tmax (30 mg, multiple dosing 30 mg (n = 3)): 4.33 h | AUC(0-t) (30 mg, multiple dosing 30 mg (n = 3), read-out: AUC0–24): 1150 ng·h/mL | Tmax (30 mg, single dose 30 mg (n = 3)): 2.32 h | AUC(0-t) (30 mg, single dose 30 mg (n = 3), read-out: AUC0-t): 1310 ng·h/mL | Tmax (60 mg, multiple dosing 60 mg (n = 3)): 4.01 h | AUC(0-t) (60 mg, multiple dosing 60 mg (n = 3), read-out: AUC0–24): 4960 ng·h/mL | Tmax (60 mg, single dose 60 mg (n = 3)): 1.33 h | AUC(0-t) (60 mg, single dose 60 mg (n = 3), read-out: AUC0-t): 3650 ng·h/mL | Tmax (90 mg, multiple dosing 90 mg (n = 8)): 2.87 h | AUC(0-t) (90 mg, multiple dosing 90 mg (n = 8), read-out: AUC0–24): 4390 ng·h/mL | Tmax (90 mg, single dose 90 mg (n = 8)): 1.69 h | AUC(0-t) (90 mg, single dose 90 mg (n = 8), read-out: AUC0-t): 5430 ng·h/mL | Tmax (120 mg, multiple dosing 120 mg (n = 11)): 2.79 h | AUC(0-t) (120 mg, multiple dosing 120 mg (n = 11), read-out: AUC0–24): 6120 ng·h/mL | Tmax (120 mg, single dose 120 mg (n = 11)): 1.81 h | AUC(0-t) (120 mg, single dose 120 mg (n = 11), read-out: AUC0-t): 7780 ng·h/mL | Tmax (180 mg, multiple dosing 180 mg (n = 13)): 2.79 h | AUC(0-t) (180 mg, multiple dosing 180 mg (n = 13), read-out: AUC0–24): 7210 ng·h/mL | Tmax (180 mg, single dose 180 mg (n = 12)): 2.29 h | AUC(0-t) (180 mg, single dose 180 mg (n = 12), read-out: AUC0-t): 6620 ng·h/mL | Tmax (240 mg, multiple dosing 240 mg (n = 12)): 3.27 h | AUC(0-t) (240 mg, multiple dosing 240 mg (n = 12), read-out: AUC0–24): 12700 ng·h/mL | Tmax (240 mg, single dose 240 mg (n = 10)): 2.5 h | AUC(0-t) (240 mg, single dose 240 mg (n = 10), read-out: AUC0-t): 15500 ng·h/mL | Tmax (300 mg, multiple dosing 300 mg (n = 2)): 1.24 h | AUC(0-t) (300 mg, multiple dosing 300 mg (n = 2), read-out: AUC0–24): 23400 ng·h/mL | Tmax (300 mg, single dose 300 mg (n = 3)): 2.71 h | AUC(0-t) (300 mg, single dose 300 mg (n = 3), read-out: AUC0-t): 14900 ng·h/mL | AUC(0-inf) (single dose 30 mg (n = 3)): 1710 ng·h/mL | Cmax (single dose 30 mg (n = 3)): 105 ng/mL | MRT inf (single dose 30 mg (n = 3)): 20.7 h | half-life (single dose 30 mg (n = 3)): 15.5 h | AUC(0-inf) (single dose 60 mg (n = 3)): 4060 ng·h/mL | Cmax (single dose 60 mg (n = 3)): 305 ng/mL | MRT inf (single dose 60 mg (n = 3)): 28.3 h | half-life (single dose 60 mg (n = 3)): 25.7 h | AUC(0-inf) (single dose 90 mg (n = 8)): 6210 ng·h/mL | Cmax (single dose 90 mg (n = 8)): 474 ng/mL | MRT inf (single dose 90 mg (n = 8)): 24 h | half-life (single dose 90 mg (n = 8)): 21.9 h | AUC(0-inf) (single dose 120 mg (n = 11)): 8120 ng·h/mL | Cmax (single dose 120 mg (n = 11)): 571 ng/mL | MRT inf (single dose 120 mg (n = 11)): 25.6 h | half-life (single dose 120 mg (n = 11)): 22.2 h | AUC(0-inf) (single dose 180 mg (n = 12)): 7320 ng·h/mL | Cmax (single dose 180 mg (n = 12)): 401 ng/mL | MRT inf (single dose 180 mg (n = 12)): 27.9 h | half-life (single dose 180 mg (n = 12)): 23.9 h | AUC(0-inf) (single dose 240 mg (n = 10)): 16900 ng·h/mL | Cmax (single dose 240 mg (n = 10)): 1000 ng/mL | MRT inf (single dose 240 mg (n = 10)): 25 h | half-life (single dose 240 mg (n = 10)): 22.9 h | AUC(0-inf) (single dose 300 mg (n = 3)): 17100 ng·h/mL | Cmax (single dose 300 mg (n = 3)): 905 ng/mL | MRT inf (single dose 300 mg (n = 3)): 32.4 h | half-life (single dose 300 mg (n = 3)): 27.5 h | Cssmax (multiple dosing 30 mg (n = 3)): 95.13 (54.02) ng/mL | Cssmin (multiple dosing 30 mg (n = 3)): 25.00 (8.04) ng/mL | Racc_AUC (multiple dosing 30 mg (n = 3)): 116.256 (32.91) % | Racc_Cmax (multiple dosing 30 mg (n = 3)): 89.141 (35.00) % | Cssmax (multiple dosing 60 mg (n = 3)): 419.00 (128.24) ng/mL | Cssmin (multiple dosing 60 mg (n = 3)): 117.87 (59.10) ng/mL | Racc_AUC (multiple dosing 60 mg (n = 3)): 203.993 (32.03) % | Racc_Cmax (multiple dosing 60 mg (n = 3)): 150.689 (39.79) % | Cssmax (multiple dosing 90 mg (n = 8)): 324.38 (109.58) ng/mL | Cssmin (multiple dosing 90 mg (n = 8)): 103.65 (29.27) ng/mL | Racc_AUC (multiple dosing 90 mg (n = 8)): 149.978 (88.53) % | Racc_Cmax (multiple dosing 90 mg (n = 8)): 117.082 (97.12) % | Cssmax [1]: 479.20 (151.70) ng/mL | Cssmin [1]: 139.24 (34.22) ng/mL | Racc_AUC [1]: 130.809 (36.42) % | Racc_Cmax [1]: 111.519 (44.39) % | Cssmax [2]: 529.38 (203.22) ng/mL | Cssmin [2]: 164.10 (77.76) ng/mL | Racc_AUC [2]: 174.265 (35.49) % | Racc_Cmax [2]: 138.238 (26.54) % | Cssmax [3]: 960.50 (234.47) ng/mL | Cssmin [3]: 236.00 (56.80) ng/mL | Racc_AUC [3]: 160.210 (77.95) % | Racc_Cmax [3]: 127.749 (58.74) % | Cssmax (multiple dosing 300 mg (n = 2)): 1685.00 (657.61) ng/mL | Cssmin (multiple dosing 300 mg (n = 2)): 623.50 (402.34) ng/mL | Racc_AUC (multiple dosing 300 mg (n = 2)): 309.507 (151.00) % | Racc_Cmax (multiple dosing 300 mg (n = 2)): 223.005 (88.95) % | dose proportionality of exposure (once-daily 30 to 300 mg, AUC0–24): increased in an approximately dose-proportion manner
